Patent US20050271755A1, “Phytomedicinal compositions for the control of lipid accumulation and metabolism in mammals” (priority 2004, published 2005)

Assays:
[1] = cited from earlier work
Human pancreatic lipase = biological target: T1, Human pancreatic lipase (Homo sapiens, UniProt P16233); experiment: Pancreatic Lipase (PL) inhibitory test (Lipase-PS kit); type: biochemical; details: FIG. 3 / FIG. 14
T1 construct: purchased Sigma-Aldrich
T1 sequence (P16233 17-465): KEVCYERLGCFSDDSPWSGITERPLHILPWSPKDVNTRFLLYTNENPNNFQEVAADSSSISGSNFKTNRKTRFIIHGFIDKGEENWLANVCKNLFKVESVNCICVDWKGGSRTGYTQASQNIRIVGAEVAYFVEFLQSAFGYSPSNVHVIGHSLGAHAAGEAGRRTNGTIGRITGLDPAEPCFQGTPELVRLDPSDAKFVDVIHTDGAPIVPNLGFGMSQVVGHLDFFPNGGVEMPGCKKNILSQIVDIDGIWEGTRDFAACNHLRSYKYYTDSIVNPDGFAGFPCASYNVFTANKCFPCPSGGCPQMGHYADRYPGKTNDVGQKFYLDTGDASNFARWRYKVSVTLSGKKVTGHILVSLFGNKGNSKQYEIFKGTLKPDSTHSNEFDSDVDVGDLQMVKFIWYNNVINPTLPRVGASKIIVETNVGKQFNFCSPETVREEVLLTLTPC
T1 sequence (P04118 23-112 partner): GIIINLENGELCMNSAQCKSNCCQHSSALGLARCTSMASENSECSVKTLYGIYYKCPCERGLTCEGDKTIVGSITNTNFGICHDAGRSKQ
Procedure: A Pancreatic Lipase (PL) inhibitory test was performed with a commercial kit (Lipase-PSTM Trinity Biotech USA, Jamestown, N.Y.). Lipase-PSTM reagents were obtained from Trinity Biotech USA (Lipase-PSTM was manufactured by Sigma Diagnostics (Procedure No. 805, Sigma-Aldrich, St. Louis, Mo. until 2003)). […] Louis, Mo.). […] Activator reagent (300 μL) was added and mixed by gentle inversion and the samples were incubated again for 3 min. at 37° C. The recorded rate of increase in absorbance at 550 nm due to the formation of quinone diimine dye was used to determine the pancreatic lipase activity in the samples prepared, as detailed in the literature. Lott, J. A., et al., Lipase Isoforms and Amylase Isoenzymes: Assays and Application in the Diagnosis of Acute Pancreatitis, Clinical Chemistry, 37, 361 (1991); Moreno […]., Fried […]., 2003, Inhibitory effects of grape seed extract on lipases, Nutrition 19, 876-879 (hereinafter “Moreno et al. 2003”).

SMILES | diarrhea (in words) ([1]; literature) | inhibition of dietary fat absorption ([1]; recommended therapeutic dose of 120 mg three times a day) | inhibitory effect on in vitro pancreatic lipase (in words) (Human pancreatic lipase) | inhibitory effect on in vitro pancreatic lipase (in words) (Human pancreatic lipase; listed as Esculetin)
CCCCCCCCCCC[C@@H](C[C@@H]1OC(=O)[C@H]1CCCCCC)OC(=O)[C@H](CC(C)C)NC=O [Orlistat] | common side effect | about 30% |  | 
O=c1ccc2cc(O)c(O)cc2o1 [esculetin, 6,7-dihydroxycoumarin] |  |  | particularly strong inhibitory effect | strong inhibitory effect on PL in a dose dependent manner
